Measurements published in patent publication US20230203471A1, “METHOD AND PLATFORM FOR DISRUPTING INTRACELLULAR MICROTUBULES” (National Tsing Hua University, priority 2021, published 2023).

Assays:
[1] = tested on: intracellular microtubules in HeLa cells; assay: Live-cell imaging of MT disruption (MT filament area) in transfected HeLa cells; assay type: cell-based
Method: The procedures of live-cell imaging are as follows. Live transfected cells cultured on poly(d-lysine)-coated glass coverslips (Hecht Assistent) were treated with either 100 nM rapamycin for rapid induction of protein dimerization and translocation or MT-targeting agents (10 µM nocodazole or 500 µM colchicine) during imaging. Live-cell imaging was conducted on a Nikon T1 inverted fluorescence microscope (Nikon) with a 60× oil objective (Nikon), a Prime camera (Photometrics), and 37° C., 5% CO2 heat stage (Live Cell Instrument). Rapid recruitment of proteins of interest (POIs) was imaged at 5- or 10-sec intervals, whereas the process of MT disruption was imaged at 1-min intervals. Images were obtained using Nikon NIS-Elements AR software and processed with Huygens Deconvolution Software (Scientific Volume Imaging). Image analysis was mainly performed with Nikon NIS-Elements AR software.
The procedures of measurement of MT filament area are as follows. The MT filaments in living cells were labeled with EMTB-CFP-FRB and imaged in real time (RAW image). The rolling ball correction was used to remove the cytosol background from the RAW images, which was carried out with the Nikon NIS-Elements AR software. Images were processed to generate the binary MT filament pattern via the Otsu threshold and analyzed by Fiji software.
FIGS. 2D and 2E show rapidly recruiting engineered spastins onto MTs. […] The top three layers are cells that simultaneously express EMTB-CFP-FRB and dNSpastin3Q-YFP-FKBP. The lower three layers are cells that simultaneously express EMTB-CFP-FRB and dNSpastin-YFP-FKBP-C2Lact. The color bar on the right indicates the brightness value represented by the color of the FRET signal. […] Data are shown as the mean ± S.E.M. It was noteworthy that MT disruption triggered by dNSpastin3Q-YFP-FKBP upon rapamycin treatment (T½ = 11.05 ± 1.52 min) was much faster than that of dNSpastin-YFP-FKBP-C2Lact upon rapamycin treatment (T½ = 53.08 ± 8.08 min), and treatment of two common MTAs, nocodazole (10 µM; T½ = 54.02 ± 10.29 min), colchicine (500 µM; T½ = 94.28 ± 8.63 min; see FIGS. 2F to 2J). […] In FIG. 2H, HeLa cells transfected with the indicated constructs were treated with nocodazole (Noc)([…], a type of MTA), colchicine (Col)(500 µM, a type of MTA), or rapamycin (Rapa)(100 nM); scale bar, 10 µm. […] Data are shown as the mean ± S.E.M. Student’s t-tests were performed, with the resulting p-values indicated.

[2] = tested on: intracellular microtubules in HeLa cells; assay: as above; assay type: cell-based; details: nocodazole 3.3 µM

With `COC(=O)Nc1nc2ccc(C(=O)c3cccs3)cc2[nH]1` [nocodazole] the “microtubules removed within one hour” value ([1]; 3.3 µM nocodazole) was 31%, the “T½ of MT disruption” value ([1]; nocodazole 10 µM, HeLa cells) was 54.02 ± 10.29 min and the “time required to disrupt half of the intracellular microtubules” value [2] was 106.86 ± 12.11 min.
